We go through one compound from patent publication US9828398B2, “Compound for bone scanning and use thereof” (TAIWAN HOPAX CHEMS. MFG. CO., LTD., priority 2015, dated 2017).

This assay is described as follows: Planar scintigraphy of 111In-compounds in normal rats. The format is in vivo. The conditions noted are these: 1, 24 and 48 hours after ^111In-OMS or ^111In-OB121. How it is done: FIG. 31 is planar scintigraphy of ^111In-Compounds ([…], iv, at 1-48 hours acquired 500,000, count) in normal rats.
Pamidronate (PAM), Methyl diphosphonate (MDP) and OMS are bone-related agents and were used as control group in present invention. Scintigraphic images, captured by a gamma camera equipped with low-energy, parallel-hole collimator or micro-PET, were obtained in 0.5-2 hours. The selected images are shown in FIGS. 29 and 30, wherein FIG. 29 compares the planar images of 30, 60, and 120 min of normal rats which were taken ^99mTc-PAM, ^99mTc-MDP, ^99mTc-OMS, ^99mTc-OB141, ^99mTc-OB 121 and ^99mTc-DTPA-BP respectively. FIG. 30 compares the planar images of 20, 60, and 150 min of normal rats which were taken ^99mTc-MDP, ^99mTc-DTPA-AMDP, and ^99mTc-MAMA-AMDP respectively. Higher joint-to-muscle (J/M) or bone-to-muscle (B/M) ratios and the better quality of bone images were achieved. […] Besides, as tetraazacyclic groups are very lipophilic so that they may have potential applications in the treatment of osteoporosis. Thus, tetraazacyclic groups were labeled with In-111 for longer observation.

Take `O=P(O)(O)C(O)(CN1CCN(CC(O)(P(=O)(O)O)P(=O)(O)O)CCN(CC(O)(P(=O)(O)O)P(=O)(O)O)CCN(CC(O)(P(=O)(O)O)P(=O)(O)O)CC1)P(=O)(O)O` [OB-121, 1,4,7,10-Tetraazacyclododecane-1,4,7,10-tetrakis(2-hydroxy-ethylenebisphosphonate)]: the “quality of planar images” value was “better compound for getting high quality images”.
